Measured values published in ChEMBL document CHEMBL1201862, “PubChem BioAssay data set” (2004).
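In this assay, cells in 96-well plates receive the compound at five concentrations for 48 hours. Endpoints are linearly interpolated between the surrounding concentrations. GI50 marks 50% less growth.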 Calls of active or inactive are those of the source. No stated cut-off is given here; in the data, active = GI50 up to about 1.1 µM and inactive = higher.

What was measured:
Experiment in all cases: NCI anticancer screen, dose series, 48 h
[1] = system: 786-0
[2] = system: A498
[3] = system: A549
[4] = system: ACHN
[5] = system: BT-549
[6] = system: CAKI-1
[7] = system: CCRF-CEM
[8] = system: COLO 205
[9] = system: DU-145
[10] = system: EKVX
[11] = system: HCT-116
[12] = system: HCT-15
[13] = system: HL-60
[14] = system: HOP-62
[15] = system: HOP-92
[16] = system: HT-29
[17] = system: Hs-578T
[18] = system: IGROV-1
[19] = system: K562
[20] = system: KM12
[21] = system: LOX IMVI
[22] = system: M14
[23] = system: MCF7
[24] = system: MDA-MB-231
[25] = system: MDA-MB-435
[26] = system: MDA-N
[27] = system: MOLT-4
[28] = system: Malme-3M
[29] = system: NCI-H226
[30] = system: NCI-H23
[31] = system: NCI-H460
[32] = system: NCI-H522
[33] = system: NCI/ADR-RES
[34] = system: OVCAR-3
[35] = system: OVCAR-4
[36] = system: OVCAR-5
[37] = system: OVCAR-8
[38] = system: PC-3
[39] = system: RPMI-8226
[40] = system: RXF 393
[41] = system: SF-268
[42] = system: SF-295
[43] = system: SF-539
[44] = system: SK-MEL-28
[45] = system: SK-MEL-2
[46] = system: SK-MEL-5
[47] = system: SK-OV-3
[48] = system: SN12C
[49] = system: SNB-19
[50] = system: SNB-75
[51] = system: SR
[52] = system: SW-620
[53] = system: T47D
[54] = system: TK-10
[55] = system: U-251
[56] = system: UACC-257
[57] = system: UACC-62
[58] = system: UO-31

Measured: GI50

CC(C)=CCNc1ncnc2c1c(C#N)cn2C1OC(CO)C(O)C1O (stereo not given)
inactive: [1] > 100 µM | [2] 24 µM | [3] 8.32 µM | [4] 9.82 µM | [5] > 100 µM | [6] 73.8 µM | [7] 3.85 µM | [9] 10.9 µM | [10] 10.4 µM | [11] 4.61 µM | [13] 9.12 µM | [14] 53.1 µM | [15] 24.3 µM | [16] 12.3 µM | [17] 56.9 µM | [19] 3.86 µM | [20] 1.36 µM | [21] > 79.8 µM | [22] > 58.3 µM | [24] 33.7 µM | [25] 31.1 µM | [26] 42.1 µM | [27] 65.2 µM | [28] > 77.6 µM | [29] 39.2 µM | [30] > 56.5 µM | [31] 4.02 µM | [32] 7.64 µM | [33] > 82 µM | [34] 3.66 µM | [36] > 66.2 µM | [37] 50.7 µM | [38] 32.5 µM | [39] 3.56 µM | [40] 71.1 µM | [41] > 100 µM | [42] > 100 µM | [43] > 72.1 µM | [44] > 100 µM | [45] 39.7 µM | [46] 21.7 µM | [47] 16.9 µM | [48] 12.7 µM | [49] > 53.8 µM | [50] 75.7 µM | [51] 5.45 µM | [52] 10 µM | [54] 1.21 µM | [55] > 67.5 µM | [56] > 100 µM | [57] 39.7 µM | [58] 32.8 µM
0.603 µM: [12]
active: [8] 0.716 µM | [18] 0.431 µM | [23] < 0.019 µM | [35] 1.1 µM | [53] 0.0386 µM

CN(C(=O)Cc1cc(Cl)c(Cl)cc1N=C=S)[C@H]1CCCC[C@@H]1N1CCCC1
13.6 µM: [12]
inactive: [1] 12.7 µM | [2] 13.5 µM | [3] 15.4 µM | [4] 15.4 µM | [5] 15.1 µM | [6] 15.8 µM | [7] 2.07 µM | [8] 9.73 µM | [9] 14.7 µM | [10] 17.3 µM | [11] 8.49 µM | [13] 10.1 µM | [14] 14.2 µM | [15] 9.42 µM | [16] 5.94 µM | [17] 15.5 µM | [18] 13.9 µM | [19] 2.02 µM | [20] 14.8 µM | [21] 5.9 µM | [22] 15.5 µM | [23] 13.3 µM | [24] 14.3 µM | [25] 6.49 µM | [26] 14.8 µM | [27] 3 µM | [28] 17.4 µM | [30] 15.2 µM | [31] 7.36 µM | [32] 13.1 µM | [33] 17.8 µM | [34] 15.6 µM | [35] 13.3 µM | [36] 16.9 µM | [37] 14 µM | [38] 13.5 µM | [39] 7.96 µM | [40] 4.45 µM | [41] 15.8 µM | [42] 16.7 µM | [43] 23.6 µM | [44] 1.39 µM | [45] 15.3 µM | [46] 14 µM | [47] 18 µM | [48] 16.6 µM | [49] 13.9 µM | [50] 14.6 µM | [51] 1.64 µM | [52] 5.47 µM | [53] 16.1 µM | [54] 10.1 µM | [55] 14.9 µM | [56] 14.6 µM | [57] 16.4 µM | [58] 15.5 µM

O=C1CCCC(=O)N1n1c(Cc2ccccc2)n[nH]c1=O
inactive: [1] > 100 µM | [2] > 100 µM | [3] > 100 µM | [4] > 100 µM | [5] > 100 µM | [6] > 100 µM | [7] > 100 µM | [8] > 100 µM | [9] > 100 µM | [10] > 100 µM | [11] > 100 µM | [13] > 100 µM | [14] > 100 µM | [15] > 100 µM | [16] > 100 µM | [17] > 100 µM | [18] > 100 µM | [19] > 100 µM | [20] > 100 µM | [21] > 100 µM | [22] > 100 µM | [23] > 100 µM | [24] > 100 µM | [25] > 100 µM | [26] > 100 µM | [27] > 100 µM | [28] > 100 µM | [29] > 100 µM | [30] > 100 µM | [32] > 100 µM | [33] > 100 µM | [34] > 100 µM | [35] > 100 µM | [36] > 100 µM | [37] > 100 µM | [38] > 100 µM | [39] > 100 µM | [40] > 100 µM | [41] > 100 µM | [42] > 100 µM | [44] > 100 µM | [45] > 100 µM | [46] > 100 µM | [47] > 100 µM | [48] > 100 µM | [50] > 100 µM | [51] > 100 µM | [52] > 100 µM | [53] > 100 µM | [54] > 100 µM | [55] > 100 µM | [56] > 100 µM | [57] > 100 µM | [58] > 100 µM
> 100 µM: [12]
